In PMC10518717, “High-Throughput Screening and Proteomic Characterization of Compounds Targeting Myeloid-Derived Suppressor Cells” (Molecular & Cellular Proteomics : MCP, 2023):

Columns and labels:
A594 cells = test: CellROX-based detection of ROS levels; type: cell-based; conditions: 48 h treatment (compound 2 7.8 μM, N-acetyl-cysteine 300 μM), then 200 μM tert-butyl hydroperoxide 2 h; compared to compound 3 10 μM
Description: A594 cells were maintained in Fluorobrite DMEM (Thermo Fisher Scientific) supplemented with GlutaMAX (Thermo Fisher Scientific) and 10% fetal bovine serum (PAN Biotech). Cells were seeded onto a 24-well microplate (Ibidi) and treated with DMSO, 7.8 μM compound 2 (3x EC50), 10 μM compound 3, or 300 μM N-acetyl-cysteine for 48 h. After the treatment, cells were incubated with 200 μM tert-butyl hydroperoxide (Sigma) for 2 h to stimulate ROS production. Then, cells were stained with CellROX deep red (Thermo Fisher Scientific) following the manufacturer’s guidelines. CellROX deep red signal was measured on a Leica DMI 6000 B epifluorescent microscope with a Cy5 filter set. Mean signal intensity per cell was determined from >100 cells per condition from three independent treatments.
For the CellROX assay, three independent treatments were conducted. From each, the mean signal intensity per cell was determined for >100 cells per condition. The statistical significance was calculated by one-way ANOVA followed by a post hoc Tukey’s multiple comparisons test using GraphPad Prism (v.8.3.0).

Acyp1 = biological target: T1, Acyp1 (Mus musculus, UniProt P56376); test: Solvent-induced protein precipitation profiling; type: binding; conditions: 7.8 μM and 26 μM; relative to compound 3 at 10 μM
T1 construct: We treated NUP-MDSC cell lysate with compound 2; endogenous in cells; host or cells: mouse NUP-MDSC (lysate)
T1 sequence (P56376 1-99): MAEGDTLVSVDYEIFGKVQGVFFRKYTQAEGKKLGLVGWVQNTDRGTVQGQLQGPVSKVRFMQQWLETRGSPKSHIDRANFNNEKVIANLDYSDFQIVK
Description: (§1) NUP-MDSCs were differentiated as described above, washed twice with PBS, resuspended in lysis buffer (PBS, 0.4% IGEPAL CA-630, 1× Halt Protease-Inhibitor Cocktail (Thermo Fisher Scientific)), and subjected to three freeze-thaw cycles. The lysate was cleared by centrifugation for 30 min at 18,000g and 4 °C. The soluble fraction was diluted to 4 mg/ml and allowed to warm up to room temperature. Equal volumes of lysate were treated in triplicates with 100 x compound stock solutions (in DMSO) or DMSO for 15 min at room temperature (final concentrations: cmpd 2: 7.8 μM (3xEC50) and 26 μM (10xEC50), cmpd 3: 10 μM and 26 μM). […]
(§2) Peptides were analyzed via LC-MS/MS on a Vanquish Neo UHPLC coupled to an Orbitrap Eclipse Tribrid mass spectrometer (Thermo Fisher Scientific). […] Samples were measured, employing a MS3 method with real-time search. […] To obtain quantitative information on TMT reporter ions, each peptide precursor was fragmented again as for MS2 analysis followed by synchronous selection of the up to 10 most intense peptide fragments in the iontrap ([37]) and further fragmentation via HCD using an NCE of 55%. […] The MS3 scan was recorded in the OT at 30,000 resolution (scan range 110–500 m/z, isolation window of 0.7 m/z, AGC of 2e4 charges, maxIT of 120 ms). […]

Cd74 = biological target: T2, Cd74 (Mus musculus, UniProt P04441); test: Solvent-induced protein precipitation profiling; type: binding; conditions: 7.8 μM and 26 μM; relative to compound 3 at 10 μM
T2 construct: We treated NUP-MDSC cell lysate with compound 2; endogenous in cells; host or cells: mouse NUP-MDSC (lysate)
T2 sequence (P04441 1-279): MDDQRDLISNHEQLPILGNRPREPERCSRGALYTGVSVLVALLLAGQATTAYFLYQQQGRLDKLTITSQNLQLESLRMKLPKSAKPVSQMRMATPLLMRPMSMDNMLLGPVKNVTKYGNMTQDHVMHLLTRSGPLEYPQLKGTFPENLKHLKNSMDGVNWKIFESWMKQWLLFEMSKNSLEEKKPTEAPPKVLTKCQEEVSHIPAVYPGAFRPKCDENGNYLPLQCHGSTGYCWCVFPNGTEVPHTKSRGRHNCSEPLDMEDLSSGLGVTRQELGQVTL
Description: as §1, §2

CCOC(=O)c1nnn(-c2nn3nnnc3c3ccccc23)c1C [compound 2]
CellROX Deep Red fluorescence (amount of ROS in a cell) (A594 cells): decreased significantly | stabilization against solvent-induced aggregation of Acyp1 (Acyp1): dose-dependent stabilization | stabilization against solvent-induced aggregation of Cd74 (Cd74): dose-dependent stabilization
